Source: article PMC3929320 (Journal of medicinal chemistry, 2010)

Assays:
[1] = target: T1, human kynurenine aminotransferase II (hKAT II) (Homo sapiens, UniProt Q8N5Z0); assay: recombinant enzyme assay, L-KYN to KYNA conversion by HPLC; type: biochemical
Target sequence in this assay (Q8N5Z0 whole entry): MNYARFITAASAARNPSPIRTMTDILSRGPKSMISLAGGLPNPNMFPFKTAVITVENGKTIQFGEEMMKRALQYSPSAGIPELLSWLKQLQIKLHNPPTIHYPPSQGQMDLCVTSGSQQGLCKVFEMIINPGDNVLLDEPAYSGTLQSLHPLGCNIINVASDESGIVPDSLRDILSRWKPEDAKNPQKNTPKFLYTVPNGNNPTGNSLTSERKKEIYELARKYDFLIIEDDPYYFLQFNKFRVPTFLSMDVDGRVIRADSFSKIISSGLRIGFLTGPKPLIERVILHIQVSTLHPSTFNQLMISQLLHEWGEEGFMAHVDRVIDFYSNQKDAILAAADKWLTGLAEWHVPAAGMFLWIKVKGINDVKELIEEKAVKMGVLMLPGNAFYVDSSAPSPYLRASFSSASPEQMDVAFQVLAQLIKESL

[2] = target: T1, human kynurenine aminotransferase II (hKAT II); assay: X-ray crystal structure at […] Å; type: biochemical
Target sequence in this assay (Q8N5Z0 2-425): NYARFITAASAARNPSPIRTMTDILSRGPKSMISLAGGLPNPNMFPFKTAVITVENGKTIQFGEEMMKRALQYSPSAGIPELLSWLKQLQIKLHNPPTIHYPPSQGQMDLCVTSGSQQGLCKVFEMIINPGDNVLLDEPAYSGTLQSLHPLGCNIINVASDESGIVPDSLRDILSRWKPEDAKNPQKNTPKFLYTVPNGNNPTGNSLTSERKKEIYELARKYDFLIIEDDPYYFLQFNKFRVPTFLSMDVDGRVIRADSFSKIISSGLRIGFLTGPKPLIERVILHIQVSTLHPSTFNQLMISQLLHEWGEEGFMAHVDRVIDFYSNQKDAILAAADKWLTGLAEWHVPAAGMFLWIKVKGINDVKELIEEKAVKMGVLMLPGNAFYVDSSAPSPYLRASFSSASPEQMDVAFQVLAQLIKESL

| IC50 [1] | IC50 [2] | SMILES |
| --- | --- | --- |
| 0.91 and 1.5 (two enantiomers) μM | – | C[C@@H]1COc2c(N3CCN(N)CC3)c(F)cc3c(=O)c(C(=O)O)cn1c23 [1*, 1* (stereoisomer of BFF-122)] |
| – | 0.91 and 1.5 (two enantiomers) μM | C[C@H]1COc2c(N3CCN(N)CC3)c(F)cc3c(=O)c(C(=O)O)cn1c23 [compound 1, (S)-(−)-9-(4-aminopiperazin-1-yl)-8-fluoro-3-methyl-6-oxo-2,3-dihydro-6H-1-oxa-3a-azaphenalene-5-carboxylic acid] |
